Tests used:
[1] = human, in vivo, po
[2] = Di Mascio P., 1989; cited from earlier work
prostatic carcinoma = conditions: 47,000 participants over 6 years (Giovannucci, E., 1995); cited from earlier work
[3] = cited from earlier work
[4] = Distribution in the body after oral intake

| SMILES | share of adsorbed compound that goes to the prostate and other internal organs [1] | activity in quenching oxygen-singlet among all carotenoids including β-carotene [2] | lowering of incidence of prostatic carcinoma in the lycopene group (prostatic carcinoma) | solubility in water [3] | solubility in organic solvents such as ethanol and acetone [3] | main distribution in the body [4] |
| --- | --- | --- | --- | --- | --- | --- |
| CC(C)=CCC/C(C)=C/C=C/C(C)=C/C=C/C(C)=C/C=C/C=C(C)/C=C/C=C(C)/C=C/C=C(\C)CCC=C(C)C [lycopene] | over 90% | highest activity | over 30% | water-insoluble |  |  |
| Oc1ccc(/C=C/c2cc(O)cc(O)c2)cc1 [resveratrol] |  |  |  | slightly soluble | soluble | heart, circulation system, along respiratory tract and skin |

Reference: patent publication US9610255B2, “Lycopene and resveratrol dietary supplement” (HSIEHS BIOTECH (SINGAPORE) PTE LTD, priority 2009, dated 2017)
